What all share (format): cell-based, human
The subject of one assay is p38 MAPK. In words: Immunoblot of phosphorylated p38 MAPK. To be noted: PPC-1/pcDNA3 vector control cells. As for the experimental part:
(§1) Immunoblot analysis. Cells were seeded in 60mm plates as described above and treated accordingly. Cells were lifted by gently scraping the plates, washed once with ice cold PBS and then lysed in lysis buffer (PBS, 1% Triton X-100, 10% glycerol) containing protease inhibitors pepstatin A (0.5 μg/ml), leupeptin (0.5 μg/ml), aprotinin (5 μg/ml), and PMSF (100 μg/ml) for 10 minutes on ice. Insoluble material was removed by centrifugation at 14,000 rpm for 15 minutes at 4° C. The supernatants were then supplemented with SDS at a final concentration of 2% and stored at −80° C. Protein concentrations were determined using the DC Protein Assay (BioRad Laboratories; Hercules, CA, USA) according to the manufacturer's instructions. 50 μg of protein per sample (unless otherwise indicated) were separated on NuPAGE 4-12% Bis-Tris gels (Invitrogen; Carlsbad, CA, USA) and transferred to nitrocellulose membranes (BioRad). Following transfer, membranes were blocked for 1 hour at room temperature in Tris-buffered saline (TBS) containing 0.1% Tween-20 and 5% nonfat dry milk and incubated overnight at 4° C. with primary antibody at a dilution of 1:2,000(actin), 1:1,000(cytochrome c, COX IV, Bax, Bak, p53, p38, P-p38), 1:500(P-JNK, JNK), 1:250 (AC, p73), or 1:400(LAMP-1, cathepsin B). Overnight incubations were performed in 5% milk in TBS-Tween. […]

The test system of a further assay is Bax. Put plainly: Immunoblot of Bax. To be noted: PC-3 cells, 10 μM. The procedure:
as §1

In another assay the test system is PUMA. In words: Immunoblot of PUMA. To be noted: for PUMA up-regulation: 10 μM. The procedure:
(§2) Immunoblot analysis. Cells were seeded in 60mm plates as described above and treated accordingly. Cells were lifted by gently scraping the plates, washed once with ice cold PBS and then lysed in lysis buffer (PBS, 1% Triton X-100, 10% glycerol) containing protease inhibitors pepstatin A (0.5 μg/ml), leupeptin (0.5 μg/ml), aprotinin (5 μg/ml), and PMSF (100 μg/ml) for 10 minutes on ice. Insoluble material was removed by centrifugation at 14,000 rpm for 15 minutes at 4° C. The supernatants were then supplemented with SDS at a final concentration of 2% and stored at −80° C. Protein concentrations were determined using the DC Protein Assay (BioRad Laboratories; Hercules, CA, USA) according to the manufacturer's instructions. 50 μg of protein per sample (unless otherwise indicated) were separated on NuPAGE 4-12% Bis-Tris gels (Invitrogen; Carlsbad, CA, USA) and transferred to nitrocellulose membranes (BioRad). Following transfer, membranes were blocked for 1 hour at room temperature in Tris-buffered saline (TBS) containing 0.1% Tween-20 and 5% nonfat dry milk and incubated overnight at 4° C. with primary antibody at a dilution of 1:2,000(actin), 1:1,000(cytochrome c, COX IV, Bax, Bak, p53, p38, P-p38), 1:500(P-JNK, JNK), 1:250 (AC, p73), or 1:400(LAMP-1, cathepsin B). Overnight incubations were performed in 5% milk in TBS-Tween. Following overnight incubation, membranes were washed three times for 10 minutes each in TBS-Tween and incubated for 1 hour at room temperature with secondary antibody in 5% milk TBS-Tween at a dilution 1:5,000 (goat anti-mouse IgG) or 1:50,000 (goat anti-rabbit). Membranes were then washed three times more and incubated for 5 minutes at room temperature with Super Signal HRP substrate (Pierce Biotechnology Inc.; Rockford, IL, USA).

The subject of assay [1] is five different PCa cell lines. In words: MTS cell viability assay, LCL204 treatments. To be noted: 24 hours treatment. As for the experimental part:
Cell lines. The human PCa cell lines DU145, LNCaP, DuPro, and PC-3 were purchased from ATCC (Manassas, Va., USA), and PPC-1 cells were from Dr. Yi Lu at the University of Tennessee (Memphis, Tenn.). All cells were cultured in RPMI 1640 (Mediatech Inc.; Herndon, Va., USA) supplemented with 10% heat-inactivated BGS (Hyclone; Logan, Utah, USA). Cells were maintained in 5% CO2 at 37° C. All experiments were performed in RPMI 1640 supplemented with 2% heat-inactivated BGS.
(§3) MTS cytotoxicity assays for LCL204 treatments. Cell viability was determined using the CellTiter 96 AQueous One Solution Cell Proliferation Assay (Promega; Madison, Wis., USA). 1×10^4 cells per well were seeded in 96-well plates overnight. The next day media was removed and replaced with either 100 μl media with vehicle control or media containing LCL204 at desired concentrations. Assays were carried out according to manufacturer's instruction as previously described (60). For experiments using enzyme inhibitors and LCL204, media was removed and replaced with 50 μl media containing vehicle only or indicated inhibitor. Cells were pretreated 1 hour at 37° C. before adding 50 μl media containing vehicle, inhibitor only, LCL204 only (2× concentration), or a combination. The remainder of the assay was carried out as described above.

The subject of another assay is DU145 cells. In words: MTS cell viability assay in DU145 cells. To be noted: in vitro. As for the experimental part:
as §3

A further assay deals with p73. Put plainly: Immunoblot of p73. As for the experimental part:
as §2

A further assay relates to JNK. Put plainly: Immunoblot of phosphorylated JNK. To be noted: DU145 and PC-3 cells. The procedure:
as §1

The subject of a further assay is Caspases 3 and 7. Put plainly: Caspase 3/7 activity assay. To be noted: DU145 cells, 24 hours treatment. The procedure: Caspase 3/7 Activity Assay. Cells were seeded overnight in clear bottom black 96 well plates (Corning; Acton Mass.). The next day, medium was removed and replaced with medium containing vehicle or LCL204 at indicated concentrations. After 24 hours treatment, Caspases 3 and 7 activities were measured using Apo-ONE Homogeneous Caspase 3/7 assay according to the manufacturer's instructions (Promega). Fluorescence was measured using a Fluostar dual fluorescence/absorbance plate reader (BMG Laboratories; Durham, N.C., USA) with 485 nm excitation and 520 nm emission filter set.

In the next assay the test system is cytochrome c. In words: Cytochrome c release into the cytosol (Western blot). To be noted: 5 or 10 μM, DU145 cells. As for the experimental part: as §1, with “(BioRad).” for “(BioRad). Following transfer, membranes were blocked for 1 hour at room temperature in Tris-buffered saline (TBS) containing 0.1% Tween-20 and 5% nonfat dry milk and incubated overnight at 4° C. with primary antibody at a dilution of 1:2,000(actin), 1:1,000(cytochrome c, COX IV, Bax, Bak, p53, p38, P-p38), 1:500(P-JNK, JNK), 1:250 (AC, p73), or 1:400(LAMP-1, cathepsin B). Overnight incubations were performed in 5% milk in TBS-Tween.”
Subcellular fractionation. […] Enzyme activity per 50 μg lysate was measured using the fluorogenic cathepsin B substrate 111 (Calbiochem) according to the manufacturer's protocol.

Assay [2] concerns total ceramide levels in DU145 cells. In words: Ceramide measurement by mass spectrometry. To be noted: 10 μM. The procedure: Ceramide measurement. 2.1×10^6 cells were seeded in 100 mm plates overnight. The next day, media was removed and replaced with media containing vehicle control or LCL204 (10 μM) for indicated time points. Following treatment, cells were harvested by gentle scraping and immediate centrifugation at 4° C. for 5 minutes at 400×g. Cell pellets were then resuspended in ice cold PBS and stored at −80° C. For sphingolipid analysis, cell pellets were examined using mass spectometry as previously described (61).

The next assay concerns LAMP-1. Put plainly: Immunoblot of LAMP-1. To be noted: DU145 cells, 12 hours LCL204. The procedure: as §1

As for `CCCCCCCCCCCCCCN[C@H](CO)[C@H](O)c1ccc([N+](=O)[O-])cc1.Cl` [LCL204, (1R,2R) D-threo-2-N-Tetradecylamino-1-(4′-nitrophenyl)-1,3-propandiol hydrochloride], the “time by which p38 MAPK phosphorylation was induced” value in the assay on p38 MAPK was not above 90 min. For the same compound, the Bax protein levels entry in the assay with Bax is given as “unaffected”. Moreover, the PUMA up-regulation entry is “up-regulated in DU145 cells after eight hours” in the assay on PUMA (DU145 cells) and “earlier (four hours) in PC-3 cells” with PUMA (PC-3 cells). Besides, the “time of PUMA induction” value in the assay on PUMA (PPC-1/pcDNA3 control cells, 7.5 μM) was found to be 90 min. For the same compound, the cell death entry in [1] is reported as “concentration-dependent cell death in the micromolar range”. The “potency as inducer of cell death compared with B13” value in the assay on DU145 cells was “much more potent inducer of cell death than B13”. In addition, the p73β induction entry is listed as “p73β induction was detected after only two hours” with p73 (PC-3 cells, 10 μM) and “time-dependent p73β induction” in the assay with p73 (PPC-1/pcDNA3 cells). Moreover, the “phosphorylation and activation of JNK” value with JNK is on record as “beginning as early as three hours”. In the assay on Caspases 3 and 7, the executioner caspase activity result was “dose-dependent executioner caspase activity”. Further, the “time by which cytochrome c release into the cytosol was detected” value in the assay on cytochrome c is not above 4 h. Moreover, the total ceramide levels result in assay [2] is on record as “rise in total ceramide levels within one hour”. Besides, the LAMP-1 expression entry in the assay with LAMP-1 was “increases”.

For the origin of these results see US8592419B2, “Ceramides and apoptosis-signaling ligand” (MUSC Foundation for Research Development, priority 2004, dated 2013).
